From patent US20240383911A1, “AZAINDAZOLE MACROCYCLE COMPOUNDS AND USES THEREOF” (BROADENBIO CO., LTD, priority 2021, published 2024)

What was measured:
HPK1 = HPK1 (Homo sapiens, UniProt Q92918); assay: HPK1 kinase activity inhibition test (ADP-Glo, luminescence); assay type: biochemical; details: 2 μM ATP, 5 nM HPK1, read-out: IC50, inhibitory effects on HPK1 kinase activity
How it was run: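 Autophosphorylation assay without added substrate: HPK1 preincubated with compound 10 min at 25 °C, then ATP added for 60 min at 25 °C; final DMSO 0.5%. ADP measured by ADP-Glo luminescence; IC50 from four-parameter nonlinear fit.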

MV-4-11 cells = assay: Detection of MV-4-11 cell activity (CellTiter-Glo); assay type: cell-based; details: Homo sapiens, MV4-11, 120 h, 5 days, CTG, read-out: IC50, inhibitory effects on MV-4-11 cell activity
Procedure: The CellTiter-Glo (CTG) luminescence method was used to detect the effect of compounds on the activity of MV-4-11 cells.
Tested compounds: compound prepared in the Examples of the present invention.
Add 100 μL containing 20,000 MV-4-11 (human myeloid monocytic leukemia cells, from the Cell Bank of the Chinese Academy of Sciences, Cat. No. SCSP-5031) cell suspension to 96-well flat-bottom clear-bottomed cell plates (Corning, Cat #3603), and then add 100 μL of cell culture medium containing a series of concentrations of the compound to be tested, with a total volume of 200 μL per well. The final gradient concentrations of the compounds were 500 nM, 125 nM, 31.25 nM, 7.813 nM, 1.953 nM, 0.488 nM, 0.122 nM, 0.031 nM, and 0.008 nM, and the final DMSO content was 0.5%. Set cells with the cell culture medium containing 0.5% DMSO but without compounds as the 100% control; set the culture medium wells without cells as 0% background control. Incubate the cell plate in a humidified incubator at 37° C. and 5% CO2 for 5 days. After 5 days, take out the cell plate, centrifuge (1000 rpm) for 5 minutes, remove and discard 100 μL supernatant, add 100 μL CTG reagent (Promega, Cat #G7572) to each well, shake at room temperature for 10 minutes to promote cell lysis, and incubate at room temperature for 30 minutes to stabilize the luminescence signal. Use a microplate reader (Molecular Device, i3X) to read the Luminescent fluorescence value, use GraphPad Prism 5.0 software to analyze the original data, use nonlinear S-curve regression to fit the data to obtain the dose-effect curve (cell survival rate %), and calculate the IC50 value.

Sequence of HPK1 (Q92918 whole entry): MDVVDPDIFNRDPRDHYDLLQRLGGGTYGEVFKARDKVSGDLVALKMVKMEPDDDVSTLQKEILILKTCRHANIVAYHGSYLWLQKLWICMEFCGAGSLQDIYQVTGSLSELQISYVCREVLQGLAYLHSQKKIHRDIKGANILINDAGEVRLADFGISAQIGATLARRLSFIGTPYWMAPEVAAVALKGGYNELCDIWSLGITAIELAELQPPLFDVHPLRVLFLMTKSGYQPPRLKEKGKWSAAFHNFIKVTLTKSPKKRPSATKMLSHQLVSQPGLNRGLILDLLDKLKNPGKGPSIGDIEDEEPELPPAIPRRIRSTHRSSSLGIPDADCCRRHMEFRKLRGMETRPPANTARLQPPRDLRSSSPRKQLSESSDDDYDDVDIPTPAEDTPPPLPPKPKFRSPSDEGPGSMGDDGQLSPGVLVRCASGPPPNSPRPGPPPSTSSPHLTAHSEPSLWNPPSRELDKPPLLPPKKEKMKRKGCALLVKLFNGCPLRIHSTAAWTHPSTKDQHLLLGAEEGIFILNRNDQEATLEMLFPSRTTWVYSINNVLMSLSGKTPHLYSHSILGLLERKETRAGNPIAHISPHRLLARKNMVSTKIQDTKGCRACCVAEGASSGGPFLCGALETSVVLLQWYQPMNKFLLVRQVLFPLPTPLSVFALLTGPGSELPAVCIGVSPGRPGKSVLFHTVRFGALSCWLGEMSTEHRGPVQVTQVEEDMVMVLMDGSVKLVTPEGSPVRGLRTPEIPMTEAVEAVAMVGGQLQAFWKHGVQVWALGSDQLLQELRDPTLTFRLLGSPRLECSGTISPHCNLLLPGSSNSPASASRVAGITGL

CN1CCN(c2ncc3cc2OCCCOc2cccc(F)c2-c2cc4c-3n[nH]c4cn2)CC1 [Compound 3, 16-fluoro-5-(4-methylpiperazin-1-yl)-7,11-dioxa-4,19,22,23-tetraazapentacyclo[16.5.2.1^2,6.0^12,17.0^21,24]hexacosa-1(23),2(26),3,5,12,14,16,18,20,24-decaene]
IC50 (HPK1): ≤ 5 nM
IC50 (MV-4-11 cells): 32 nM

CN1CCN(c2ccc3cc2OCCCOc2cccc(F)c2-c2cc4c-3n[nH]c4cn2)CC1 [Compound 6, 16-fluoro-5-(4-methylpiperazin-1-yl)-7,11-dioxa-19,22,23-triazapentacyclo[16.5.2.1^2,6.0^12,17.0^21,24]hexacosa-1(23),2(26),3,5,12,14,16,18,20,24-decaene]
IC50 (HPK1): ≤ 5 nM
IC50 (MV-4-11 cells): 3.8 nM

CN1CCN(c2ccc3cc2OCCOCc2cccc(F)c2-c2cc4c-3n[nH]c4cn2)CC1 [Compound 9, 16-fluoro-5-(4-methylpiperazin-1-yl)-7,10-dioxa-19,22,23-triazapentacyclo[16.5.2.1^2,6.0^12,17.0^21,24]hexacosa-1(23),2(26),3,5,12,14,16,18,20,24-decaene]
IC50 (HPK1): ≤ 5 nM
IC50 (MV-4-11 cells): 7 nM
